Test results from publication PMC10846240, “Pharmacokinetic/pharmacodynamic integration of amphenmulin: a novel pleuromutilin derivative against Mycoplasma gallisepticum” (Microbiology Spectrum, 2023).
Converted amounts (≈) assume the structure as drawn. “And” between values parts separate entries of the source, which are not always exact repeats. Identical values can stand only once. Like-named read-outs stand apart in the source and are kept apart here.

Assays:
[1] = In vivo pharmacokinetics of amphenmulin in chickens (IV, IM, PO); details: for Cmax: mean ± SD, n = 10; for bioavailability: read-out: F (absolute bioavailability)
Method: The M. gallisepticum standard strain S6 was obtained from the National Center for Veterinary Culture Collection (Beijing, China). Amphenmulin (98%) was synthesized by our laboratory according to the published methods ([10]). Acetonitrile and all other liquid chemicals used were purchased from Macklin Biochemical Technology Co., Ltd (Shanghai, China). M. gallisepticum in this study was cultured under standard conditions of 37°C with the following nutrients: swine serum, M. gallisepticum artificial medium base from Qingdao Hope Biological Technology Co., Ltd (Qingdao, China), nicotinamide adenine dinucleotide (NADH) and cysteine from Aladdin Biochemical Technology Co., Ltd (Shanghai, China). Thirty healthy adult yellow-feathered broilers weighing 1.58 to 2.04 kg were used in this study, caged, fed without antibiotics and anticoccidial drugs, and watered and fed ad libitum. All animal experimental procedures were approved by the Animal Ethics Committee of South China Agricultural University (Approval number: 2023a015).
In this study, the dose design for the administration of amphenmulin was mainly based on the previous study report on tiamulin ([15]). The chickens were randomly divided into three groups (10 per group) and given a single dose of 20 mg/kg of body weight (bw.) of amphenmulin via intravenous, intramuscular injection, and oral gavage, respectively. Blood samples were collected from the brachial wing vein of each chicken at 0, 5, 10, 15, 30, 45 min, 1, 2, 3, 4, 6, 8, 10, 12, 24 h after intravenous injection, and at 0, 3, 6, 9, 12, 20, […], 45 min, 1, 2, 4, 8, 12, 24 h after oral and intramuscular administrations. The blood samples were centrifuged at 3,500 rpm for 10 min. The plasma was collected and stored at −20°C until analysis.
After the plasma samples were restored to room temperature, 200 µL was taken and vortexed with 800 µL of acetonitrile, centrifuged at 12,000 rpm for 10 min. The supernatant was filtered through a 0.22-µm filter and analyzed using a high-performance liquid chromatography-tandem mass spectrometry (HPLC-MS/MS) system (Agilent 1200 HPLC and Applied Biosystem API4000 mass spectrometer, ABI Sciex, USA). Amphenmulin was separated on a C18 column (150 mm × 2 mm, 5 µm) at a flow rate of 0.5 mL/min, with a mobile phase of 0.1% aqueous formic acid and acetonitrile (40:60, vol/vol). The electrospray ionization (ESI) source of the mass spectrometer was operated in positive ion mode for multi-reaction monitoring, with the following ion source parameters: ion spray voltage 4,500 V, collision gas 5 psi, ion source gas1 50 psi, ion source gas2 55 psi, curtain gas 20 psi, source temperature 400°C.
Additionally, the plasma concentration–time data of amphenmulin in each individual were further analyzed using the non-compartmental method in Phoenix 8.1 (Certara, USA) to calculate pharmacokinetic parameters, in which the area under the curve (AUC) was calculated using the log-linear trapezoidal method, and the results were reported as mean ± standard deviation (SD).

[2] = tested on: M. gallisepticum S6 strain; assay: Susceptibility assay, broth microdilution (MIC, MBC); type: cell-based, Mycoplasma gallisepticum
Method: The minimum inhibitory concentration (MIC) of amphenmulin against M. gallisepticum S6 strain was determined with reference to the protocols previously reported ([16], [17]). The broth microdilution method was performed using 96-well plates to achieve a final titer of approximately 10^7 colony-forming units (CFU)/mL of M. gallisepticum in each well. The final concentrations tested of amphenmulin ranged from 0.488 × 10^−3 to 0.125 µg/mL. Concurrently, a growth control (without drug), an end-point control (blank medium), and a sterile control (sterile broth) were also implemented. […] For the agar dilution method, M. gallisepticum was inoculated and cultured on agar plates containing a twofold dilution series of amphenmulin concentrations, and the MIC was the lowest drug concentration that inhibited growth. Additionally, following the procedure of broth microdilution, the initial culture before incubation and the samples from wells where the color remained unchanged after 48 h of incubation were subjected to 10-fold serial dilutions. Each dilution sample (10 µL) was then plated on drug-free agar for colony counting.

[3] = tested on: M. gallisepticum; assay: In vitro dynamic model (one-compartment, first-order elimination); type: cell-based, Mycoplasma gallisepticum
Method: According to previous reports ([21][–][23]), an in vitro model compatible with M. gallisepticum growth and amphenmulin pharmacokinetics was developed ([24]). It comprised a reservoir chamber containing fresh, drug-free medium; a reaction chamber with a three-necked flask where amphenmulin interacts with M. gallisepticum, containing 300 mL of medium in the outer chamber (external compartment, EC) and 10 mL of M. gallisepticum culture (10^7 CFU/mL) in a semipermeable membrane chamber (internal compartment, IC); and a waste chamber collecting effluent, which were connected via tubing and controlled by a peristaltic pump (Fig. 2). In this model, the flow rate was calculated as 1.63 mL/min from the reaction chamber volume and amphenmulin’s elimination half-life (T1/2Ke) after intravascular administration in chickens, enabling dynamic changes in drug concentrations that simulate amphenmulin elimination in chickens and its activity against M. gallisepticum. The in vitro elimination of amphenmulin followed first-order kinetics:
where C0 is the initial amphenmulin concentration, C is the amphenmulin concentration at time t, k is the elimination rate constant, and t is the time after dosing. […]
The determination of amphenmulin in the medium referenced our laboratory’s method for extracting tiamulin ([25]) and was also detected by the HPLC-MS/MS method mentioned in the PK section.

[4] = design: method as in PMID 32079232; details: mice; cited from earlier work
[5] = yellow-feathered broilers, plasma, 20 mg/kg bw., IM
[6] = yellow-feathered broilers, plasma, 20 mg/kg bw., IV
[7] = yellow-feathered broilers, plasma, 20 mg/kg bw., PO

In the case of `C=C[C@]1(C)C[C@@H](OC(=O)CSc2ccccc2N)[C@]2(C)[C@H](C)CC[C@]3(CCC(=O)[C@H]32)[C@@H](C)[C@@H]1O` [amphenmulin, 22-(2-amino-phenylsulfanyl)-22-deoxypleuromutilin], the T1/2Ke ([1]; 20 mg/kg bw., IM) is reported as 5.50 ± 1.43 h, the T1/2Ke ([1]; 20 mg/kg bw., IV, 20 mg/kg) is reported as 2.13 h and 2.13 ± 0.63 h and the T1/2Ke ([1]; 20 mg/kg bw., PO) is reported as 2.60 ± 0.87 h. For the same molecule, the “oral absorption rate constant (Ka)” value ([1]; oral, residual method) was “approximately 3.15 1/h”, the Tmax ([1]; yellow-feathered broilers, chicken, plasma, other: oral and intramuscular, 20 mg/kg bw., two extravascular routes (oral and intramuscular), read-out: time to peak levels after administration) was < 0.5 h and the AUC(0-inf) [1, 5] was 9850 ± 2720 ng·h/mL. It also gave an AUC(0-t) [1, 5] of 9160 ± 2650 ng·h/mL, an MRT [1, 5] of 7.89 ± 2.75 h and a k el [1, 5] of 3.61e-05 s⁻¹. The Cmax [1, 5] was 1930 ± 480 ng/mL, the bioavailability [1, 5] was 52.1% and the Tmax ([1]; yellow-feathered broilers, plasma, 20 mg/kg bw., IM, read-out: Tmax) was 0.38 ± 0.2 h. For the same molecule, the AUC(0-inf) [1, 6] was 18900 ± 6030 ng·h/mL, the AUC(0-t) [1, 6] was 18800 ± 6090 ng·h/mL and the MRT [1, 6] was 3.13 ± 1.05 h. It also gave a clearance [1, 6] of 19.5 mL/min/kg, a k el [1, 6] of 9.72e-05 s⁻¹ and a Vd ([1]; yellow-feathered broilers, plasma, 20 mg/kg bw., IV, read-out: Vss) of 3.64 ± 1.58 L/kg. The AUC(0-inf) [1, 7] was 1110 ± 430 ng·h/mL, the AUC(0-t) [1, 7] was 1060 ± 400 ng·h/mL and the MRT [1, 7] was 2.98 ± 1.05 h. It also gave a k el [1, 7] of 8.06e-05 s⁻¹, a Cmax [1, 7] of 730 ± 360 ng/mL and a bioavailability [1, 7] of 5.88%. The Tmax ([1]; yellow-feathered broilers, plasma, 20 mg/kg bw., PO, read-out: Tmax) was 0.25 ± 0.11 h, the MIC ([2]; Mycoplasmoides gallisepticum, S6STRAIN, broth microdilution, inoculum 10^7 CFU/mL, strain S6) was 3.9 ng/mL (≈ 0.00803 µM) and the MBC ([2]; Mycoplasmoides gallisepticum, S6STRAIN, inoculum 10^7 CFU/mL, reduction > 3 Log10CFU/mL after 48 h) was 15.6 ng/mL (≈ 0.0321 µM). The “MIC at inoculum levels of 107, 106, and 105” value ([2]; early pre-experiments (response to reviewer)) was “no significant difference”, the “mycoplasma numbers at the highest dose” value ([3]; counting limit) was < 100 CFU/mL and the “maximum decrease of M. gallisepticum counts within 0–72 h” value ([3]; doses of 0.1–0.5 μg/mL) was ≤ 2.82 Log10CFU/mL. The oral bioavailability [4] was 13.65%.
